Active and inactive are the calls of the source. The calls are words filed in the database; no cut-off is given here.
Columns and labels:
HepG2 = experiment: Antiproliferative activity against human HepG2 cells after 48 hrs by MTT assay; type: functional, cell-based; conditions: HepG2, 48 h
WI-38 = experiment: Antiproliferative activity against human WI38 cells after 48 hrs by MTT assay; type: functional, cell-based; conditions: WI-38, 48 h
Vero = experiment: Antiproliferative activity against african green monkey Vero cells after 48 hrs by MTT assay; type: functional, cell-based; conditions: Chlorocebus sabaeus
MCF7 [1] = experiment: Antiproliferative activity against human MCF7 cells after 48 hrs by MTT assay; type: functional, cell-based; conditions: MCF7, 48 h
PBL = experiment: Immunostimulant activity in PHA-stimulated human PBL assessed as lymphocyte transformation at 2 mM after 72 hrs by Giemsa staining method; type: functional
[2] = Antioxidant activity assessed as ABTS free radical scavenging activity by spectrophotometry; type: functional; parameters: concentration or dose not given beside the values
MCF7 [3] = experiment: Cell cycle arrest in human MCF7 cells assessed as reduction in G2/M-phase accumulation at IC50 after 24 hrs by FACs analysis relative to untreated control; type: functional, cell-based
MCF7 [4] = experiment: Cell cycle arrest in human MCF7 cells assessed as increase in G0/G1-phase accumulation at IC50 after 24 hrs by FACs analysis (reference value: 55.6+/-0.6 %); type: functional
MCF7 [5] = experiment: Cell cycle arrest in human MCF7 cells assessed as reduction in S-phase accumulation at IC50 after 24 hrs by FACs analysis (reference value: 34.1+/-1.1 %); type: functional; parameters: scale not given: the % may be the effect or the level left
MCF7 [6] = experiment: Cell cycle arrest in human MCF7 cells assessed as increase in G0/G1-phase accumulation at IC50 after 24 hrs by FACs analysis; type: functional, cell-based
MCF7 [7] = experiment: Cell cycle arrest in human MCF7 cells assessed as reduction in S-phase accumulation at IC50 after 24 hrs by FACs analysis; type: functional, cell-based
MCF7 [8] = experiment: Cell cycle arrest in human MCF7 cells assessed as increase in pre-G apoptotic fraction at IC50 after 24 hrs by FACs analysis relative to untreated control; type: functional, cell-based

SMILES | IC50 (HepG2) [µM] | IC50 (WI-38) [µM] | IC50 (Vero) [µM] | IC50 (MCF7 [1]) [µM] | Activity (PBL) [%] | Activity [2] [%] | Activity (MCF7 [3]) | Activity (MCF7 [4]) [%] | Activity (MCF7 [5]) [%] | Activity (MCF7 [6]) | Activity (MCF7 [7]) | Activity (MCF7 [8])
COc1ccc(-c2cc(=O)c3c(O)c(OC)c(OC)c(O)c3o2)cc1OC | 45 | 95 | 100 | 35 | 15 | 78.3 |  |  |  |  |  | 
O=C1O[C@H]([C@@H](O)CO)C(O)=C1O |  |  |  |  |  | 80 |  |  |  |  |  | 
C=C1C[C@]23CC[C@H]4C(CO)(CO)C(=O)CC[C@]4(C)[C@H]2CC[C@@H]1C3 | 50 | 90 | 90 | 40 | 10 | 34.3 |  |  |  |  |  | 
COc1ccc(-c2cc(=O)c3cc(OC)c(O)c(OC)c3o2)cc1OC | 20 | 115 | 95 | 15 | 55 | 52.7 | Active | 73.4 | 15.6 |  |  | 
COc1cc(-c2cc(=O)c3c(O)cc(OC)c(OC)c3o2)cc(OC)c1OC | 25 | 100 | 105 | 20 | 45 | 54.2 |  |  |  |  |  | 
COc1ccc(-c2oc3c(OC)c(OC)c(OC)c(O)c3c(=O)c2OC)cc1 [5-HYDROXYAURANETIN] | 35 | 80 | 90 | 30 | 25 | 71.1 |  |  |  |  |  | 
O=c1[nH]cc(F)c(=O)[nH]1 [FLUOROURACIL] | 10 | 10 | 8 |  |  |  |  |  |  | Active | Active | Active
COc1cc(O)c2c(=O)cc(-c3ccc(OC)c(OC)c3)oc2c1 | 15 | 105 | 125 | 10 | 65 | 45.8 | Active | 71.3 | 13 |  |  | Active
COc1cc(-c2cc(=O)c3cc(OC)c(OC)c(O)c3o2)cc(O)c1OC | 30 | 105 | 85 | 25 | 35 | 56.8 |  |  |  |  |  | 
COc1ccc(-c2cc(=O)c3c(O)c(OC)c(OC)c(OC)c3o2)cc1 [GARDENIN B] | 40 | 75 | 85 | 30 | 20 | 75.4 |  |  |  |  |  | 

From ChEMBL document CHEMBL2407006, “Selective cytotoxic effects on human breast carcinoma of new methoxylated flavonoids from Euryops arabicus grown in Saudi Arabia” (Eur J Med Chem, 2013)
